Measurements as given in ChEMBL document CHEMBL3526000 (Drug Metab Dispos, 2012).

Biological target: T1, UDP-glucuronosyltransferase 1A10 (Homo sapiens, UniProt Q9HAW8)
T1 sequence (Q9HAW8 whole entry): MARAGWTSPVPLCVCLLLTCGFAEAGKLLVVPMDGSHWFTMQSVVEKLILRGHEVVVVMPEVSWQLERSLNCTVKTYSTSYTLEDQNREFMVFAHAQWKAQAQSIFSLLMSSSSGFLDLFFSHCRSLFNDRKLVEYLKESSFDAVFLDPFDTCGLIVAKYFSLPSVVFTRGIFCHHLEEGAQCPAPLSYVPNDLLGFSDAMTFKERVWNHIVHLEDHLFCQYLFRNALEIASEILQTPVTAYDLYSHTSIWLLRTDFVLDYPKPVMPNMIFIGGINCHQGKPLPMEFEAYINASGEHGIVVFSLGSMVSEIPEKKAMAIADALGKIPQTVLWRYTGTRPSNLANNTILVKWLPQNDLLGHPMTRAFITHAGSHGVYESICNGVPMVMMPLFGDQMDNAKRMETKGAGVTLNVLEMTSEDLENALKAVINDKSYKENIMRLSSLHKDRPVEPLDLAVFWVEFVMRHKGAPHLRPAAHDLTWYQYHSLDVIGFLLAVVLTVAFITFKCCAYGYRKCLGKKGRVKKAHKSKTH
Test: Drug metabolism assessed as recombinant human UGT1A10 assessed as O-glucuronidation at 100 uM incubated for 60 mins by LC-MS/MS analysis
Format: ADME
Details: recombinant enzyme, 1 h

SMILES: O=C(CCCN1CCC(O)(c2ccc(Cl)cc2)CC1)c1ccc(F)cc1 [HALOPERIDOL]
- Drug metabolism: metabolite_not_detected
